Assay results reported in patent US20240116985A1, “STAPLED PEPTIDES AND METHODS THEREOF” (priority 2020, published 2024).
Like-named read-outs stand apart in the source and are kept apart here.

Experiments:
[1] = biological target: T1, beta-catenin/TCF4 engagement (Homo sapiens, UniProt P35222); assay: Nano-BRET target engagement assay (B-cat-Halo & TCF4-Luc in HEK293 cells); format: cell-based; conditions: absolute IC50; read-out: NanoBRET Abs IC50
T1 construct: expressed in transfected cells; host or cells: HEK293
T1 sequence (P35222 1-781): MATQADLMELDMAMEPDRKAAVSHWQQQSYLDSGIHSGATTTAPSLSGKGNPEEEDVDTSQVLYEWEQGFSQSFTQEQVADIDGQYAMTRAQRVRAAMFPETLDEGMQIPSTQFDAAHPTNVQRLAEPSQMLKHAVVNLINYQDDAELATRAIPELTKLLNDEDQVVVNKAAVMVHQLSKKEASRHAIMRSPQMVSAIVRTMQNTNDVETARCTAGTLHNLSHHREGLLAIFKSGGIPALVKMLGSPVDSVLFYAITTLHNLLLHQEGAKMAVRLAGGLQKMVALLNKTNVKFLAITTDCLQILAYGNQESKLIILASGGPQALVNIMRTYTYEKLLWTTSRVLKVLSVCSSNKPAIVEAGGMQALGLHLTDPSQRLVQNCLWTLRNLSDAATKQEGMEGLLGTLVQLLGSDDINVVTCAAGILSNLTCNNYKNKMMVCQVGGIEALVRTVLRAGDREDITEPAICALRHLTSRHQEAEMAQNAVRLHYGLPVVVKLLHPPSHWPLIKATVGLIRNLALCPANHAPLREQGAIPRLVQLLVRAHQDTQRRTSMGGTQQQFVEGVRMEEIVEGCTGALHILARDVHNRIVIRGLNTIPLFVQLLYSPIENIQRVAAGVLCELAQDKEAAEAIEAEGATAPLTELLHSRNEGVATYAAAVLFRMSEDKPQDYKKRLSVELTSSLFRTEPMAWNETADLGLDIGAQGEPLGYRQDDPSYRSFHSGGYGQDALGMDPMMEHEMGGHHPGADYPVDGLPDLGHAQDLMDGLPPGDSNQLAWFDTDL

[2] = tested on: TCF/LEF luciferase Reporter in DLD1 cells; assay: TCF reporter assay (DLD1 TCF/LEF luciferase reporter, Bright-Glo); format: cell-based; conditions: absolute IC50
Excerpt: Those skilled in the art will appreciate that other suitable reagents may be utilized and various parameters may be adjusted.
DLD1 reporter cell line was generated by using TCF/LEF luciferase Reporter Lentivirus (BPS Bioscience Catalog #79787). Parental DLD1 cells (ATCC@ CCL-221) were transfected with the lentivirus and followed by 3-day puromycin selection. Single clone was selected for Reporter assay.
On Day 1, cultured cells in flasks that are no more than about 60-70% confluent were washed with PBS and typsinized in 3 mL/T75 until cells were free floating. Spin down cells for 5 minutes at 1100RPM. While cells spin, determine the number of plates (3 compounds per plate) needed. After spinning, aspirate the supernatant gently and add 10 mL media (RPMI+4% FBS), and re-suspend and mix the cells gently. Count the cells twice in the cell counter Countess and take average of both the counts, and determine how many cells are needed. After plating cells at 5000 cells/well, seal with aerseal film. 90 uL cells/well. Incubate at 37° C. overnight, tap gently to mix and don't stack plates.
On Day 2, compounds were added. Stock solution was 10 mM. Make the DMSO containing media by adding 36 uL DMSO to 10 mL of media. Make the dilution wells by transferring 100 uL DMSO+Media into rows B-F of a protein LoBind 96-well plate. Row G is empty. Add any extra DMSO+media to row H. Transfer 4 uL of stock solution to Row A. One compound per column. Add 196 uL media to Row A, no DMSO in the media. Concentration of Row A was 200 uM. Mix well and do a 6 pt, 1:2 serial dilution, mix ×10 per transfer and change tips before each transfer. Removed excess volume from final well (row F) and discard. Transfer 10 uL of the compound containing media to cells with a multichannel according to plate maps. Add 60 uL DMSO containing media to the DMSO wells. The edge wells were typically not used in the assay and could be ignored if needed or replaced with PBS, but there typically were liquids in the wells. Cover plates with breathable plate sealer and incubate overnight.
A 96-well plate may be utilized to prepare dilution series for up to 12 compounds, each with several concentrations (e.g., 200, 100, 50, 25, 12.5, 6.25 and 0 uM; can be utilized as 100× depending on final test concentrations).
0 uM is the DMSO control for the whole plate. Edge well filled with 90 uL cells+10 uL DMSO containing media.
On Day 3, luciferase levels were assessed using Bright-Glo (Promega). Equilibrate Bright-Glo to room temperature before addition. 7 mL of mixed Bright-Gbo per plate. Unused Bright-Glo could be store at −80° C. Reconstituted reagent can be stored for up to 1 month at −80° C., or after one freeze-thaw. When ready to read, remove plates from incubator and let sit at room temperature for 15 minutes. Typically stagger taking out plates if reading multiple plates before adding the Bright-Glo. Add 90 uL/well Bright-Glo and shake gently for 3 minutes. Read luminescence on GloMax immediately using ‘BrightGlo’ programs.
Cellular activity was assessed using CTG. Equilibrate CTG reagents to room temperature. Equilibrate plates to room temp, e.g. 15 min. Use same time length for all plates. Add CTG reagent, 25 uL if using undiluted, or 90 uL if diluted 1 to 4. Shake for 2 min to induce cell lysis. Allow plate to incubate at RT for 10 min to stabilize lumine sent signal. Read luminesence using program ‘CellTiter-Glo’. Use Prism to find the Absolute IC50 (AbsIC50=X[50]) of each compound.

[3] = biological target: T2, full-length beta-Catenin (Uniprot ID P35222) (Homo sapiens, UniProt P35222); assay: Fluorescence polarization IC50 (beta-catenin / 5FAM-TCF4 10-53 competition); format: binding; conditions: fluorescence polarization; read-out: beta-Catenin FP IC50
T2 construct: 10 nM full-length beta-Catenin (Uniprot ID P35222)
T2 sequence (P35222 1-781): T1 sequence (P35222 1-781)

[4] = read-out: DLD1 4% Abs IC50, DLD1 reporter, 4%
[5] = read-out: DLD1 reporter assay Abs IC50

IC50 [1] [nM]	IC50 [2, 4] [nM]	IC50 [3] [nM]	IC50 ([2]; read-out: DLD1 4% Abs IC50, DLD1 reporter assay, 4%) [nM]	IC50 [2, 5] [nM]	Compound
5600	3000	38	–	–	CC(=O)N1CCC[C@]12CC=CCCCC1(CCCC=CCCCOC(=O)N3CC[C@@](C(=O)N[C@@H](Cc4ccccc4C(F)(F)F)C(=O)N[C@@H](Cc4csc5ccccc45)C(=O)N[C@@H](CO)C(N)=O)(C3)NC(=O)[C@H](CC(C)C)NC(=O)[C@H](Cc3ccccc3)NC(=O)[C@H](C)NC(=O)[C@H](C)NC(=O)[C@H](Cn3cc(CC4(C(=O)O)CCCCC4)nn3)NC(=O)[C@H](CC(=O)O)NC1=O)NC(=O)[C@H](CC(C)(C)C)NC(=O)[C@H](CC(=O)O)NC2=O (stereo partly drawn) [I-2521, Ac-PL3-Asp-Npg-B5-Asp-[CH2CChCO2H]TriAzDap-Ala-Ala-Phe-Leu-PyrS2-2F3MeF-BztA-Ser-NH2]
9100	1400	22	–	–	CC(=O)N1CCC[C@]12CC=CCCCC1(CCCC=CCCCOC(=O)N3CC[C@@](C(=O)N[C@@H](Cc4ccccc4C(F)(F)F)C(=O)N[C@@H](Cc4csc5ccccc45)C(=O)N[C@@H](CCC(N)=O)C(=O)N[C@@H](CC(C)C)C(=O)N[C@@H](CC(N)=O)C(N)=O)(C3)NC(=O)[C@H](CC(C)C)NC(=O)[C@H](Cc3ccccc3)NC(=O)[C@H](C)NC(=O)[C@H](C)NC(=O)[C@H](Cc3cccc(C(=O)O)c3)NC(=O)[C@H](CC(=O)O)NC1=O)NC(=O)[C@H](CC(C)(C)C)NC(=O)[C@H](CC(=O)O)NC2=O (stereo partly drawn) [I-2390, Ac-PL3-Asp-Npg-B5-Asp-3COOHF-Ala-Ala-Phe-Leu-PyrS2-2F3MeF-BztA-Gln-Leu-Asn-NH2]
4800	1000	31	–	–	CC(=O)N1CCC[C@]12CC=CCCCC1(CCCC=CCCCOC(=O)N3CC[C@@](C(=O)N[C@@H](Cc4ccccc4C(F)(F)F)C(=O)N[C@@H](Cc4csc5ccccc45)C(=O)N[C@@H](CCC(N)=O)C(=O)N[C@@H](CC(C)C)C(=O)N[C@@H](C)C(N)=O)(C3)NC(=O)[C@H](CC(C)C)NC(=O)[C@H](Cc3ccccc3)NC(=O)[C@H](C)NC(=O)[C@H](C)NC(=O)[C@H](Cc3cccc(C(=O)O)c3)NC(=O)[C@H](CC(=O)O)NC1=O)NC(=O)[C@H](CC(C)(C)C)NC(=O)[C@H](CC(=O)O)NC2=O (stereo partly drawn) [I-2378, Ac-PL3-Asp-Npg-B5-Asp-3COOHF-Ala-Ala-Phe-Leu-PyrS2-2F3MeF-BztA-Gln-Leu-Ala-NH2]
5600	–	13	1300	–	CC(=O)N1CCC[C@]12CC=CCCCC1(CCCC=CCCCOC(=O)N3CC[C@@](C(=O)N[C@@H](Cc4ccsc4)C(=O)N[C@@H](Cc4csc5ccccc45)C(=O)N[C@@H](CO)C(N)=O)(C3)NC(=O)[C@H](CC(C)C)NC(=O)[C@H](Cc3ccccc3)NC(=O)[C@H](C)NC(=O)[C@H](C)NC(=O)[C@H](Cc3ccccc3C(=O)O)NC(=O)[C@H](CC(=O)O)NC1=O)NC(=O)[C@H](CC(C)(C)C)NC(=O)[C@H](CC(=O)O)NC2=O (single isomer, unassigned) [I-1667, Ac-PL3-Asp-Npg-B5-Asp-2COOHF-Ala-Ala-Phe-Leu-PyrS2-3Thi-BztA-Ser-NH2]
2500	1400	10	–	–	CC(=O)N1CCC[C@]12CC=CCCCC1(CCCC=CCCCOC(=O)N3CC[C@@](C(=O)N[C@@H](Cc4ccsc4)C(=O)N[C@@H](Cc4csc5ccccc45)C(=O)N[C@@H](CCC(=O)N(C)C)C(=O)N[C@@H](C)C(N)=O)(C3)NC(=O)[C@H](CC(C)C)NC(=O)[C@H](Cc3ccccc3)NC(=O)[C@H](C)NC(=O)[C@H](C)NC(=O)[C@H](CN(CC(=O)O)CC(F)(F)F)NC(=O)[C@H](CC(=O)O)NC1=O)NC(=O)[C@H](CC(C)(C)C)NC(=O)[C@H](CC(=O)O)NC2=O (stereo partly drawn) [I-2467, Ac-PL3-Asp-Npg-B5-Asp-TfeGA-Ala-Ala-Phe-Leu-PyrS2-3Thi-BztA-Me2Gln-Ala-NH2]
> 20000	3800	30	–	4800	CC(=O)N1CCC[C@]12CC=CCCCC1(CCCC=CCCCOC(=O)N3CC[C@@](C(=O)N[C@@H](Cc4ccccc4Cl)C(=O)N[C@@H](Cc4csc5ccccc45)C(=O)N[C@@H](C)CO)(C3)NC(=O)[C@H]([C@@H](C)O)NC(=O)[C@H](Cc3ccccc3)NC(=O)[C@H](C)NC(=O)[C@H](C)NC(=O)[C@H](CN(CC(=O)O)CC(F)(F)F)NC(=O)[C@H](CC(=O)O)NC1=O)NC(=O)[C@H](CC(C)(C)C)NC(=O)[C@H](CC(=O)O)NC2=O (stereo partly drawn) [I-1242, Ac-PL3-Asp-Npg-B5-Asp-TfeGA-Ala-Ala-Phe-Thr-PyrS2-2C1F-BztA-Alao1]
4200	800	77	–	–	CC(=O)N1CCC[C@]12CC=CCCCC1(CCCC=CCCCOC(=O)N3CC[C@@](C(=O)N[C@@H](Cc4ccccc4C(F)(F)F)C(=O)N[C@@H](Cc4csc5ccccc45)C(=O)N[C@@H](CCC(N)=O)C(=O)N[C@@H](CC(C)C)C(=O)N[C@H](C(N)=O)[C@@H](C)O)(C3)NC(=O)[C@H](CC(C)C)NC(=O)[C@H](Cc3ccccc3)NC(=O)[C@H](C)NC(=O)[C@H](C)NC(=O)[C@H](Cc3cccc(C(=O)O)c3)NC(=O)[C@H](CC(=O)O)NC1=O)NC(=O)[C@H](CC(C)(C)C)NC(=O)[C@H](CC(=O)O)NC2=O (stereo partly drawn) [I-2383, Ac-PL3-Asp-Npg-B5-Asp-3COOHF-Ala-Ala-Phe-Leu-PyrS2-2F3MeF-BztA-Gln-Leu-Thr-NH2]
24300	16200	13	–	15900	CC(=O)N1CCC[C@]12CC=CCCCC1(CCCC=CCCCOC(=O)N3CC[C@@](C(=O)N[C@@H](Cc4ccccc4Cl)C(=O)N[C@@H](Cc4csc5ccccc45)C(=O)N[C@@H](C)CO)(C3)NC(=O)[C@H]([C@@H](C)O)NC(=O)[C@H](Cc3ccccc3)NC(=O)[C@H](C)NC(=O)[C@H](C)NC(=O)[C@H](CC(=O)O)NC(=O)[C@H](CC(=O)O)NC1=O)NC(=O)[C@H](CC(C)(C)C)NC(=O)[C@H](CC(=O)O)NC2=O (stereo partly drawn) [I-1246, Ac-PL3-Asp-Npg-B5-Asp-Asp-Ala-Ala-Phe-Thr-PyrS2-2C1F-BztA-Alao1]
